From patent US20190105337A1, “METHODS OF TREATING BACTERIAL INFECTIONS” (priority 2015, published 2019)
Read-outs that look alike come from different tables or passages of the source.

Experiments:
[1] = Example 1: pharmacokinetics of Compound I, single (SD) and multiple (MD, q8h 7 days) ascending doses, 3-hour IV infusion, healthy adult subjects; format: in vivo, human; conditions: for CL renal / AUC(0-t) / Cmax / Tmax / half-life / AUC(0-inf) / dose excreted: human, intravenous; for CL renal: plasma and urine; for AUC(0-t) / Cmax / Tmax / half-life / AUC(0-inf): plasma; for dose excreted: urine
Procedure: (§1) 56 healthy subjects were enrolled into one of 7 cohorts of 8 subjects each in the single ascending dose phase (250 mg, 500 mg, 750 mg, 1000 mg, 1250 mg, 1500 mg and 2000 mg). Thirty-two additional subjects were then enrolled into one of 4 cohorts in the multiple-dose phase (250 mg, 1000 mg, 1500 mg, and 2000 mg, given q8 h for 7 days). […] All infusions were administered over 3 hours. Plasma and urine samples were obtained after single or multiple doses and assayed for Compound I content using a validated HPLC/MS method.

[2] = Example 1: safety and tolerability of Compound I in healthy adult subjects; format: in vivo, human
Procedure: as §1

clinical [3] = conditions: human, in vivo; for clearance: Plasma Clearance; for Vd: Vss
Procedure: The combination of both drugs was administered on day 7. All drugs were infused over 3 hours. Plasma and urine samples were obtained and assayed using validated HPLC/MS methods.

clinical [4] = conditions: human, in vivo; for clearance: Plasma Clearance; for Vd: Vss; remark: listed apart in the source
Procedure: All infusions were administered over 3 hours. Intensive plasma and urine PK sampling was obtained after dosing and assayed using validated HPLC/MS methods.

With `O=C(O)C[C@@H]1CC[C@H](NC(=O)Cc2cccs2)B(O)O1` [Compound I] the CLNon-R ([1]; 250 mg multiple dose) was 2.49 L/h, the CLNon-R ([1]; 250 mg single dose) was 2.85 L/h and the CLNon-R ([1]; 500 mg single dose) was 2.55 L/h. It also gave a CLNon-R ([1]; 750 mg single dose) of 1.72 L/h, a CLNon-R ([1]; 1000 mg multiple dose) of 2.31 L/h and a CLNon-R ([1]; 1000 mg single dose) of 0.97 L/h. For the same compound, the CLNon-R ([1]; 1250 mg single dose) was 1.33 L/h, the CLNon-R ([1]; 1500 mg multiple dose) was 1.68 L/h and the CLNon-R ([1]; 1500 mg single dose) was 1.42 L/h. The CLNon-R ([1]; 2000 mg multiple dose) was 1.15 L/h, the CLNon-R ([1]; 2000 mg single dose) was -1.07 L/h and the “exposure (Cmax and AUC) versus dose” value ([1]; following single and multiple doses) was “increased in a dose-proportional manner”. The CL renal ([1]; 250 mg, 250 mg multiple dose) was 212 mL/min, the CL renal ([1]; 250 mg, 250 mg single dose) was 212 mL/min and the CL renal ([1]; 500 mg, 500 mg single dose) was 197 mL/min. It also gave a CL renal ([1]; 750 mg, 750 mg single dose) of 217 mL/min, a CL renal ([1]; 1000 mg, 1000 mg multiple dose) of 195 mL/min and a CL renal ([1]; 1000 mg, 1000 mg single dose) of 202 mL/min. The CL renal ([1]; 1250 mg, 1250 mg single dose) was 192 mL/min, the CL renal ([1]; 1500 mg, 1500 mg multiple dose) was 187 mL/min and the CL renal ([1]; 1500 mg, 1500 mg single dose) was 197 mL/min. It also gave a CL renal ([1]; 2000 mg, 2000 mg multiple dose) of 213 mL/min, a CL renal ([1]; 2000 mg, 2000 mg single dose) of 252 mL/min and an AUC(0-t) ([1]; 250 mg, 250 mg multiple dose) of 16.3 µg·h/mL. The Cmax ([1]; 250 mg, 250 mg multiple dose) was 4.81 µg/mL, the Tmax ([1]; 250 mg, 250 mg multiple dose) was 2.25 h and the half-life ([1]; 250 mg, 250 mg multiple dose, read-out: T1/2 (converted)) was 1.17 h. For the same compound, the AUC(0-t) ([1]; 250 mg, 250 mg single dose) was 16.2 µg·h/mL, the Cmax ([1]; 250 mg, 250 mg single dose) was 5.03 µg/mL and the Tmax ([1]; 250 mg, 250 mg single dose) was 3.02 h. The half-life ([1]; 250 mg, 250 mg single dose, read-out: T1/2 (converted)) was 1.17 h, the AUC(0-t) ([1]; 500 mg, 500 mg single dose) was 34.5 µg·h/mL and the Cmax ([1]; 500 mg, 500 mg single dose) was 9.97 µg/mL. For the same compound, the Tmax ([1]; 500 mg, 500 mg single dose) was 3 h, the half-life ([1]; 500 mg, 500 mg single dose, read-out: T1/2 (converted)) was 1.35 h and the AUC(0-t) ([1]; 750 mg, 750 mg single dose) was 50.6 µg·h/mL. It also gave a Cmax ([1]; 750 mg, 750 mg single dose) of 15.3 µg/mL, a Tmax ([1]; 750 mg, 750 mg single dose) of 3 h and a half-life ([1]; 750 mg, 750 mg single dose, read-out: T1/2 (converted)) of 1.24 h. The AUC(0-t) ([1]; 1000 mg, 1000 mg multiple dose) was 74.6 µg·h/mL, the Cmax ([1]; 1000 mg, 1000 mg multiple dose) was 21.3 µg/mL and the Tmax ([1]; 1000 mg, 1000 mg multiple dose) was 3 h. The half-life ([1]; 1000 mg, 1000 mg multiple dose, read-out: T1/2 (converted)) was 1.43 h, the AUC(0-t) ([1]; 1000 mg, 1000 mg single dose) was 76.7 µg·h/mL and the Cmax ([1]; 1000 mg, 1000 mg single dose) was 21.8 µg/mL. For the same compound, the Tmax ([1]; 1000 mg, 1000 mg single dose) was 3.01 h, the half-life ([1]; 1000 mg, 1000 mg single dose, read-out: T1/2 (converted)) was 1.41 h and the AUC(0-t) ([1]; 1250 mg, 1250 mg single dose) was 97.2 µg·h/mL. For the same compound, the Cmax ([1]; 1250 mg, 1250 mg single dose) was 27.8 µg/mL, the Tmax ([1]; 1250 mg, 1250 mg single dose) was 3 h and the half-life ([1]; 1250 mg, 1250 mg single dose, read-out: T1/2 (converted)) was 1.32 h. The AUC(0-t) ([1]; 1500 mg, 1500 mg multiple dose) was 118 µg·h/mL, the Cmax ([1]; 1500 mg, 1500 mg multiple dose) was 33.4 µg/mL and the Tmax ([1]; 1500 mg, 1500 mg multiple dose) was 3 h. The half-life ([1]; 1500 mg, 1500 mg multiple dose, read-out: T1/2 (converted)) was 1.65 h, the AUC(0-t) ([1]; 1500 mg, 1500 mg single dose) was 110 µg·h/mL and the Cmax ([1]; 1500 mg, 1500 mg single dose) was 32.9 µg/mL. It also gave a Tmax ([1]; 1500 mg, 1500 mg single dose) of 3.01 h, a half-life ([1]; 1500 mg, 1500 mg single dose, read-out: T1/2 (converted)) of 1.4 h and an AUC(0-t) ([1]; 2000 mg, 2000 mg multiple dose) of 145 µg·h/mL. For the same compound, the Cmax ([1]; 2000 mg, 2000 mg multiple dose) was 40.9 µg/mL, the Tmax ([1]; 2000 mg, 2000 mg multiple dose) was 2.25 h and the half-life ([1]; 2000 mg, 2000 mg multiple dose, read-out: T1/2 (converted)) was 1.66 h. It also gave an AUC(0-t) ([1]; 2000 mg, 2000 mg single dose) of 140 µg·h/mL, a Cmax ([1]; 2000 mg, 2000 mg single dose) of 41.6 µg/mL and a Tmax ([1]; 2000 mg, 2000 mg single dose) of 3.02 h. For the same compound, the half-life ([1]; 2000 mg, 2000 mg single dose, read-out: T1/2 (converted)) was 1.51 h, the half-life ([1]; observed, single and multiple doses, read-out: terminal half-life) was < 2 h and the AUC(0-inf) ([1]; 250 mg single dose) was 16.6 µg·h/mL. For the same compound, the AUC(0-inf) ([1]; 500 mg single dose) was 35.6 µg·h/mL, the AUC(0-inf) ([1]; 750 mg single dose) was 51.8 µg·h/mL and the AUC(0-inf) ([1]; 1000 mg single dose) was 79.3 µg·h/mL. It also gave an AUC(0-inf) ([1]; 1250 mg single dose) of 100 µg·h/mL, an AUC(0-inf) ([1]; 1500 mg single dose) of 114 µg·h/mL and an AUC(0-inf) ([1]; 2000 mg single dose) of 144 µg·h/mL. It also gave a dose excreted ([1]; 250 mg, 250 mg multiple dose, read-out: Urinary Recovery) of 79.9%, a dose excreted ([1]; 250 mg, 250 mg single dose, read-out: Urinary Recovery) of 81.3% and a dose excreted ([1]; 500 mg, 500 mg single dose, read-out: Urinary Recovery) of 80.3%. The dose excreted ([1]; 750 mg, 750 mg single dose, read-out: Urinary Recovery) was 86.4%, the dose excreted ([1]; 1000 mg, 1000 mg multiple dose, read-out: Urinary Recovery) was 82.8% and the dose excreted ([1]; 1000 mg, 1000 mg single dose, read-out: Urinary Recovery) was 89.9%. The dose excreted ([1]; 1250 mg, 1250 mg single dose, read-out: Urinary Recovery) was 86.9%, the dose excreted ([1]; 1500 mg, 1500 mg multiple dose, read-out: Urinary Recovery) was 86.8% and the dose excreted ([1]; 1500 mg, 1500 mg single dose, read-out: Urinary Recovery) was 86.6%. The dose excreted ([1]; 2000 mg, 2000 mg multiple dose, read-out: Urinary Recovery) was 91.6%, the dose excreted ([1]; 2000 mg, 2000 mg single dose, read-out: Urinary Recovery) was 105% and the dose excreted ([1]; over 48 hours across all dose groups, read-out: Urinary recovery) was ≥ 80%. The “accumulation with multiple doses” value ([1]; q8h for 7 days) was “no evidence of accumulation”, the “serious adverse events (SAEs)” value ([2]; 250-2000 mg) was “no serious adverse events” and the “severity of AEs” value ([2]; 250-2000 mg) was “all AEs were mild or moderate”. The safety and tolerability ([2]; all doses tested) was “safe and well tolerated at all doses tested”, the AUC(0-inf) (clinical [3]; 250 mg) was 17.5 µg·h/mL and the Cmax (clinical [3]; 250 mg) was 5.2 µg/mL. For the same compound, the half-life (clinical [3]; 250 mg) was 1.18 h, the clearance (clinical [3]; 250 mg) was 245 mL/min and the Vd (clinical [3]; 250 mg) was 23.1 L. It also gave an AUC(0-inf) (clinical [3]; 1000 mg) of 77.6 µg·h/mL, a Cmax (clinical [3]; 1000 mg) of 22 µg/mL and a half-life (clinical [3]; 1000 mg) of 1.56 h. For the same compound, the clearance (clinical [3]; 1000 mg) was 222 mL/min, the Vd (clinical [3]; 1000 mg) was 21.4 L and the AUC(0-inf) (clinical [3]; 1500 mg) was 124 µg·h/mL. For the same compound, the Cmax (clinical [3]; 1500 mg) was 37.2 µg/mL, the half-life (clinical [3]; 1500 mg) was 1.21 h and the clearance (clinical [3]; 1500 mg) was 206 mL/min. It also gave a Vd (clinical [3]; 1500 mg) of 19.4 L, an AUC(0-inf) (clinical [4]; 250 mg) of 17.5 µg·h/mL and a Cmax (clinical [4]; 250 mg) of 5.2 µg/mL. It also gave a half-life (clinical [4]; 250 mg) of 1.18 h, a clearance (clinical [4]; 250 mg) of 245 mL/min and a Vd (clinical [4]; 250 mg) of 23.1 L. It also gave an AUC(0-inf) (clinical [4]; 1000 mg) of 77.6 µg·h/mL, a Cmax (clinical [4]; 1000 mg) of 22 µg/mL and a half-life (clinical [4]; 1000 mg) of 1.56 h. It also gave a clearance (clinical [4]; 1000 mg) of 222 mL/min, a Vd (clinical [4]; 1000 mg) of 21.4 L and an AUC(0-inf) (clinical [4]; 1500 mg) of 124 µg·h/mL. The Cmax (clinical [4]; 1500 mg) was 37.2 µg/mL, the half-life (clinical [4]; 1500 mg) was 1.21 h and the clearance (clinical [4]; 1500 mg) was 206 mL/min. For the same compound, the Vd (clinical [4]; 1500 mg) was 19.4 L.
